In US6358885B1, “Substituted phenylheterocyclic herbicides” (Mississippi State University, priority 1992, dated 2002):

Key:
speedwell = assay: Test C preemergence/postemergence greenhouse plant response rating 0 to 100; format: in vivo, Veronica persica; details: for Plant response rating Speedwell: 0 to 100 scale
Excerpt: The compounds evaluated in this test were formulated in a non-phytoxic solvent and applied to the soil surface before plant seedlings emerged (preemergence application), to water that covered the soil surface (flood application), and to plants that were in the one-to-four leaf stage (postemergence application). A sandy loam soil was used for the preemergence and postemergence tests, while a silt loam soil was used in the flood test. Water depth was approximately 2.5 cm for the flood test and was maintained at this level for the duration of the test. Plant species in the preemergence and postemergence tests consisted of barley (Hordeum vulgare), bedstraw (Galium aparine), blackgrass (Alopecurus myosuroides), chickweed (Stellaria media), corn (Zea mays), cotton (Gossypium hirsutum), crabgrass (Digitaria sanguinalis), downy brome (Bromus tectorum), giant foxtail (Setaria faberii), lambsquarters (Chenopodium album), morningglory (Ipomoea hederacea), pigweed ([…]), rape (Brassica napus), ryegrass (Lolium multiflorum), sorghum (Sorghum bicolor), soybean (Glycine max), speedwell (Veronica persica), sugar beet (Beta vulgaris), velvetleaf (Abutilon theophrasti), wheat (Triticum aestivum), wild buckwheat (Polygonum convolvulus), and wild oat (Avena fatua). All plant species were planted one day before application of the compound for the preemergence portion-of this test. Plantings of these species were adjusted to produce plants of appropriate size for the post-emergence portion of the test. […] All plant species were grown using normal greenhouse practices. Visual evaluations of injury expressed on treated plants, when compared to untreated controls, were recorded approximately fourteen to twenty one days after application of the test compound. […] A dash (-) response means no test result.

alfalfa = assay: Test G preemergence/postemergence greenhouse plant response rating 0 to 100; format: in vivo, Medicago ativa; details: 0 to 100 scale
Summary of the method: (§1)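 Greenhouse pots, one species each; non-phytotoxic solvent vehicle. Read-out: visual injury vs untreated, 13–21 DAT. Dash denotes no result.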

annual bluegrass = assay: as above; format: in vivo, Poa annua; details: 0 to 100 scale
Summary of the method: as §1

bermudagrass = assay: as above; format: in vivo, Cynodon dactylon; details: 0 to 100 scale
Summary of the method: as §1

broadleaf signalgrass = assay: as above; format: in vivo, Brachiaria plantaginea; details: 0 to 100 scale
Summary of the method: as §1

common purslane = assay: as above; format: in vivo, Portulaca oleracea; details: 0 to 100 scale
Summary of the method: as §1

common ragweed = assay: as above; format: in vivo, Ambrosia elatior; details: 0 to 100 scale
Summary of the method: as §1

dallisgrass = assay: as above; format: in vivo, Paspalum dilatatum; details: 0 to 100 scale
Summary of the method: as §1

goosegrass = assay: as above; format: in vivo, Eleusine indica; details: 0 to 100 scale
Summary of the method: as §1

guineagrass = assay: as above; format: in vivo, Panicum maximum; details: 0 to 100 scale
Summary of the method: as §1

itchgrass = assay: as above; format: in vivo, Rottboellia exaltata; details: 0 to 100 scale
Summary of the method: as §1

johnsongrass = assay: as above; format: in vivo, Sorghum halepense; details: 0 to 100 scale
Summary of the method: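 Visual injury scores, taken 13–21 d after spraying and judged against untreated pots; dash = not tested. Single-species greenhouse pots; test chemical dissolved in non-phytotoxic solvent. Pre: applied ≤1 d post-planting.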

large crabgrass = assay: as above; format: in vivo, Digitaria sanguinalis; details: 0 to 100 scale
Summary of the method: as §1

peanut = assay: as above; format: in vivo, Arachis hypoagaea; details: 0 to 100 scale
Summary of the method: as §1

pitted morningglory = assay: as above; format: in vivo, Ipomoea lacunosa; details: 0 to 100 scale
Summary of the method: as §1

purple nutsedge = assay: as above; format: in vivo, Cyperus rotundus; details: Rate 125 g/ha, 0 to 100 scale
Summary of the method: as §1

smooth crabgrass = assay: as above; format: in vivo, Digitaria ischaemum; details: 0 to 100 scale
Summary of the method: as §1

yellow nutsedge = assay: as above; format: in vivo, Cyperus esculentus; details: Rate 125 g/ha, 0 to 100 scale
Summary of the method: as §1

## C#CCOc1cc(-c2nn3c(c2Br)CCCC3)c(F)cc1Cl [Compound 26]
speedwell; POSTEMERGENCE, 62 g/ha
  Plant response rating Speedwell: 100
speedwell; POSTEMERGENCE, 250 g/ha
  Plant response rating Speedwell: 100
speedwell; POSTEMERGENCE, Rate 4 g/ha
  Plant response rating (0 to 100), Speedwell: 90
speedwell; PREEMERGENCE, 250 g/ha
  Plant response rating Speedwell: 100
speedwell; PREEMERGENCE, Rate 4 g/ha
  Plant response rating (0 to 100), Speedwell: 90
speedwell; Rate 16 g/ha, POSTEMERGENCE
  Plant response rating (0 to 100), Speedwell: 100
speedwell; Rate 16 g/ha, PREEMERGENCE
  Plant response rating (0 to 100), Speedwell: 100
alfalfa; POSTEMERGENCE, Rate 125 g/ha
  Plant response rating, Alfalfa Var.: 20
alfalfa; POSTEMERGENCE, Rate 250 g/ha
  Plant response rating, Alfalfa Var.: 50
alfalfa; PREEMERGENCE, Rate 125 g/ha
  Plant response rating, Alfalfa Var.: 0
alfalfa; PREEMERGENCE, Rate 250 g/ha
  Plant response rating, Alfalfa Var.: 60
Annual bluegrass; POSTEMERGENCE, Rate 125 g/ha
  Plant response rating, Ann Bluegrass: 0
Annual bluegrass; POSTEMERGENCE, Rate 250 g/ha
  Plant response rating, Ann Bluegrass: 0
Annual bluegrass; PREEMERGENCE, Rate 125 g/ha
  Plant response rating, Ann Bluegrass: 0
Annual bluegrass; PREEMERGENCE, Rate 250 g/ha
  Plant response rating, Ann Bluegrass: 0
bermudagrass; POSTEMERGENCE, Rate 125 g/ha
  Plant response rating, Bermudagrass: 0
bermudagrass; POSTEMERGENCE, Rate 250 g/ha
  Plant response rating, Bermudagrass: 0
bermudagrass; PREEMERGENCE, Rate 125 g/ha
  Plant response rating, Bermudagrass: 0
bermudagrass; PREEMERGENCE, Rate 250 g/ha
  Plant response rating, Bermudagrass: 0
Broadleaf signalgrass; POSTEMERGENCE, Rate 125 g/ha
  Plant response rating, Brdlf Sgnlgrass: 0
Broadleaf signalgrass; POSTEMERGENCE, Rate 250 g/ha
  Plant response rating, Brdlf Sgnlgrass: 0
Broadleaf signalgrass; PREEMERGENCE, Rate 125 g/ha
  Plant response rating, Brdlf Sgnlgrass: 0
Broadleaf signalgrass; PREEMERGENCE, Rate 250 g/ha
  Plant response rating, Brdlf Sgnlgrass: 0
Common purslane; POSTEMERGENCE, Rate 125 g/ha
  Plant response rating, Cmn Purslane: 100
Common purslane; POSTEMERGENCE, Rate 250 g/ha
  Plant response rating, Cmn Purslane: 90
Common purslane; PREEMERGENCE, Rate 125 g/ha
  Plant response rating, Cmn Purslane: 30
Common purslane; PREEMERGENCE, Rate 250 g/ha
  Plant response rating, Cmn Purslane: 100
Common ragweed; POSTEMERGENCE, Rate 125 g/ha
  Plant response rating, Cmn Ragweed: 80
Common ragweed; POSTEMERGENCE, Rate 250 g/ha
  Plant response rating, Cmn Ragweed: 100
Common ragweed; PREEMERGENCE, Rate 125 g/ha
  Plant response rating, Cmn Ragweed: 0
Common ragweed; PREEMERGENCE, Rate 250 g/ha
  Plant response rating, Cmn Ragweed: 20
dallisgrass; POSTEMERGENCE, Rate 125 g/ha
  Plant response rating, Dallisgrass: 0
dallisgrass; POSTEMERGENCE, Rate 250 g/ha
  Plant response rating, Dallisgrass: 0
dallisgrass; PREEMERGENCE, Rate 125 g/ha
  Plant response rating, Dallisgrass: 20
dallisgrass; PREEMERGENCE, Rate 250 g/ha
  Plant response rating, Dallisgrass: 20
goosegrass; POSTEMERGENCE, Rate 125 g/ha
  Plant response rating, Goosegrass: 0
goosegrass; POSTEMERGENCE, Rate 250 g/ha
  Plant response rating, Goosegrass: 0
goosegrass; PREEMERGENCE, Rate 125 g/ha
  Plant response rating, Goosegrass: 70
goosegrass; PREEMERGENCE, Rate 250 g/ha
  Plant response rating, Goosegrass: 20
guineagrass; POSTEMERGENCE, Rate 125 g/ha
  Plant response rating, Guineagrass: 0
guineagrass; POSTEMERGENCE, Rate 250 g/ha
  Plant response rating, Guineagrass: 0
guineagrass; PREEMERGENCE, Rate 125 g/ha
  Plant response rating, Guineagrass: 0
guineagrass; PREEMERGENCE, Rate 250 g/ha
  Plant response rating, Guineagrass: 30
itchgrass; POSTEMERGENCE, Rate 125 g/ha
  Plant response rating, Itchgrass: 0
itchgrass; POSTEMERGENCE, Rate 250 g/ha
  Plant response rating, Itchgrass: 0
itchgrass; PREEMERGENCE, Rate 125 g/ha
  Plant response rating, Itchgrass: 0
itchgrass; PREEMERGENCE, Rate 250 g/ha
  Plant response rating, Itchgrass: 50
johnsongrass; POSTEMERGENCE, Rate 125 g/ha
  Plant response rating, Johnsongrass: 0
johnsongrass; POSTEMERGENCE, Rate 250 g/ha
  Plant response rating, Johnsongrass: 0
johnsongrass; PREEMERGENCE, Rate 125 g/ha
  Plant response rating, Johnsongrass: 0
johnsongrass; PREEMERGENCE, Rate 250 g/ha
  Plant response rating, Johnsongrass: 0
Large crabgrass; POSTEMERGENCE, Rate 125 g/ha
  Plant response rating, Large Crabgrass: 0
Large crabgrass; POSTEMERGENCE, Rate 250 g/ha
  Plant response rating, Large Crabgrass: 0
Large crabgrass; PREEMERGENCE, Rate 125 g/ha
  Plant response rating, Large Crabgrass: 90
Large crabgrass; PREEMERGENCE, Rate 250 g/ha
  Plant response rating, Large Crabgrass: 90
peanut; POSTEMERGENCE, Rate 125 g/ha
  Plant response rating, Peanuts: 0
peanut; POSTEMERGENCE, Rate 250 g/ha
  Plant response rating, Peanuts: 0
peanut; PREEMERGENCE, Rate 250 g/ha
  Plant response rating, Peanuts: 0
Pitted morningglory; POSTEMERGENCE, Rate 125 g/ha
  Plant response rating, Pit Morninglory: 0
Pitted morningglory; POSTEMERGENCE, Rate 250 g/ha
  Plant response rating, Pit Morninglory: 40
Pitted morningglory; PREEMERGENCE, Rate 125 g/ha
  Plant response rating, Pit Morninglory: 0
Pitted morningglory; PREEMERGENCE, Rate 250 g/ha
  Plant response rating, Pit Morninglory: 20
Purple nutsedge; POSTEMERGENCE
  Plant response rating, Purple Nutsedge: 0
Purple nutsedge; PREEMERGENCE
  Plant response rating, Purple Nutsedge: 0
Smooth crabgrass; POSTEMERGENCE, Rate 125 g/ha
  Plant response rating, Smooth Crabgras: 0
Smooth crabgrass; POSTEMERGENCE, Rate 250 g/ha
  Plant response rating, Smooth Crabgras: 0
Smooth crabgrass; PREEMERGENCE, Rate 125 g/ha
  Plant response rating, Smooth Crabgras: 0
Smooth crabgrass; PREEMERGENCE, Rate 250 g/ha
  Plant response rating, Smooth Crabgras: 40
Yellow nutsedge; POSTEMERGENCE
  Plant response rating, Yellow Nutsedge: 0
Yellow nutsedge; PREEMERGENCE
  Plant response rating, Yellow Nutsedge: 0
